In brackets after ≈: the same amount, converted by molar mass.
What was measured:
Escherichia coli = test: Minimal inhibitory concentration, broth micro dilution method; type: cell-based; conditions: overnight incubation, OD 610 nm, stock in DMSO, read-out: MIC E. Coli (G−)
Protocol: (§1) Minimal inhibition concentration (MIC) is the lowest concentration of an antimicrobial agent that can inhibit the visible growth of a microorganism after overnight incubation. The MIC values of zinc:usnate complex and usnic acid against Staphylococcus aureus and Escherichia coli were determined with the broth micro dilution method. Briefly, 0.1% stock solutions were prepared in dimethyl sulfoxide (DMSO). Using a 96-well microtitre plate, the corresponding testing concentrations are 500, 250, 125, 62, 31, 16, 8, 4, 2, 1, 0.5 and 0.2 ppm, respectively. The optic density readings at 610 nm for each well were used to assess the level of bacterial growth.

Staphylococcus aureus = test: as above; type: cell-based; conditions: overnight incubation, OD 610 nm, stock in DMSO, read-out: MIC S. aureus (G+)
Protocol: as §1

[1] = DI water at 35° C.; Jin et al., J Solution Chem., 2013; cited from earlier work

In the case of `CC(=O)c1c(O)c(C)c(O)c2c1OC1=CC(=O)C(C(C)=O)C(=O)C12C` (stereo not drawn) [Usnic Acid, usnic acid], the MIC (Escherichia coli) is listed as greater than 125 µg/mL, the MIC (Staphylococcus aureus) is listed as 4 µg/mL (≈ 11.6 µM) and the solubility [1] is listed as 6.3 ppm.
